According to ChEMBL document CHEMBL4002623, “Synthesis and in vitro activity of dicationic indolyl diphenyl ethers as novel potent antibiotic agents against drug-resistant bacteria” (Bioorg Med Chem Lett, 2017):
≈ marks a conversion by molar mass, not a printed value.

Columns and labels:
Klebsiella pneumoniae [1] = assay: Antibacterial activity against extended-spectrum beta-lactamase-positive Klebsiella pneumoniae 09-25 by agar dilution method; type: functional
Pseudomonas aeruginosa [2] = assay: Antibacterial activity against Pseudomonas aeruginosa 09-14 by agar dilution method; type: functional
Serratia marcescens = assay: Antibacterial activity against Serratia marcescens 41002 by agar dilution method; type: functional
Klebsiella pneumoniae [3] = assay: Antibacterial activity against extended-spectrum beta-lactamase-positive Klebsiella pneumoniae ATCC 700603 by agar dilution method; type: functional
Enterococcus faecium [4] = assay: Antibacterial activity against vancomycin-resistant Enterococcus faecium 05-8 by agar dilution method; type: functional
Enterococcus faecium [5] = assay: Antibacterial activity against vancomycin-resistant Enterococcus faecium ATCC 700221 by agar dilution method; type: functional
Staphylococcus aureus [6] = assay: Antibacterial activity against methicillin-resistant Staphylococcus aureus 09-13 by agar dilution method; type: functional
Staphylococcus aureus [7] = assay: Antibacterial activity against methicillin-sensitive Staphylococcus aureus 09-6 by agar dilution method; type: functional
Escherichia coli [8] = assay: Antibacterial activity against extended-spectrum beta-lactamase-negative Escherichia coli 1515 by agar dilution method; type: functional
[9] = test system: Staphylococcus epidermidis; assay: Antibacterial activity against methicillin-sensitive Staphylococcus epidermidis 09-9 by agar dilution method; type: functional
Klebsiella aerogenes = assay: Antibacterial activity against Enterobacter aerogenes 45102 by agar dilution method; type: functional
[10] = test system: Staphylococcus epidermidis; assay: Antibacterial activity against methicillin-sensitive Staphylococcus epidermidis ATCC 12228 by agar dilution method; type: functional
[11] = test system: Acinetobacter calcoaceticus; assay: Antibacterial activity against Acinetobacter calcoaceticus ATCC 19606 by agar dilution method; type: functional
Enterococcus faecium [12] = assay: Antibacterial activity against vancomycin-sensitive Enterococcus faecium 09-10 by agar dilution method; type: functional
Citrobacter freundii = assay: Antibacterial activity against Citrobacter freundii ATCC 43864 by agar dilution method; type: functional
Staphylococcus aureus [13] = assay: Antibacterial activity against methicillin-resistant Staphylococcus aureus ATCC 33591 by agar dilution method; type: functional
Pseudomonas aeruginosa [14] = assay: Antibacterial activity against Pseudomonas aeruginosa PAO1 by agar dilution method; type: functional
Providencia rettgeri = assay: Antibacterial activity against Providencia rettgeri ATCC 31052 by agar dilution method; type: functional
Staphylococcus aureus [15] = assay: Antibacterial activity against methicillin-sensitive Staphylococcus aureus ATCC 29213 by agar dilution method; type: functional
Enterobacter cloacae = assay: Antibacterial activity against Enterobacter cloacae 45301 by agar dilution method; type: functional
Klebsiella pneumoniae [16] = assay: Antibacterial activity against Klebsiella pneumoniae ATCC BAA-2146 expressing NDM-1 by agar dilution method; type: functional
Escherichia coli [17] = assay: Antibacterial activity against extended-spectrum beta-lactamase-positive Escherichia coli 09-1 by agar dilution method; type: functional
Proteus vulgaris = assay: Antibacterial activity against Proteus vulgaris ATCC 29905 by agar dilution method; type: functional
[18] = Cytotoxicity against HEK293T cells after 48 hrs by MTS assay; type: cell-based, HEK-293T; conditions: human
Enterococcus faecalis [19] = assay: Antibacterial activity against vancomycin-sensitive Enterococcus faecalis ATCC 29212 by agar dilution method; type: functional
Enterococcus faecalis [20] = assay: Antibacterial activity against vancomycin-sensitive Enterococcus faecalis 09-8 by agar dilution method; type: functional
Proteus mirabilis = assay: Antibacterial activity against Proteus mirabilis 09-1 by agar dilution method; type: functional
Klebsiella pneumoniae [21] = assay: Antibacterial activity against extended-spectrum beta-lactamase-negative Klebsiella pneumoniae 09-8 by agar dilution method; type: functional
Enterococcus faecalis [22] = assay: Antibacterial activity against vancomycin-resistant Enterococcus faecalis ATCC 51299 by agar dilution method; type: functional
[23] = test system: Staphylococcus epidermidis; assay: Antibacterial activity against methicillin-resistant Staphylococcus epidermidis 09-3 by agar dilution method; type: functional
Escherichia coli [24] = assay: Antibacterial activity against extended-spectrum beta-lactamase-negative Escherichia coli 09-20 by agar dilution method; type: functional
Salmonella typhi = assay: Antibacterial activity against Salmonella typhi H901 by agar dilution method; type: functional, Salmonella enterica subsp. enterica serovar Typhi; conditions: Salmonella enterica
Morganella morganii = assay: Antibacterial activity against Morganella morganii ATCC 25830 by agar dilution method; type: functional
Staphylococcus aureus [25] = assay: Antibacterial activity against methicillin-sensitive Staphylococcus aureus 15 by agar dilution method; type: functional
Enterococcus faecalis [26] = assay: Antibacterial activity against vancomycin-resistant Enterococcus faecalis 09-9 by agar dilution method; type: functional
Escherichia coli [27] = assay: Antibacterial activity against extended-spectrum beta-lactamase-negative Escherichia coli ATCC 25922 by agar dilution method; type: functional
Pseudomonas aeruginosa [28] = assay: Antibacterial activity against Pseudomonas aeruginosa ATCC 27853 by agar dilution method; type: functional
Klebsiella pneumoniae [29] = assay: Antibacterial activity against extended-spectrum beta-lactamase-negative Klebsiella pneumoniae 7 by agar dilution method; type: functional

Structure (SMILES) | MIC (Klebsiella pneumoniae [1]) [µg/mL] | MIC (Pseudomonas aeruginosa [2]) [µg/mL] | MIC (Serratia marcescens) [µg/mL] | MIC (Klebsiella pneumoniae [3]) [µg/mL] | MIC (Enterococcus faecium [4]) [µg/mL] | MIC (Enterococcus faecium [5]) [µg/mL] | MIC (Staphylococcus aureus [6]) [µg/mL] | MIC (Staphylococcus aureus [7]) [µg/mL] | MIC (Escherichia coli [8]) [µg/mL] | MIC [9] [µg/mL] | MIC (Klebsiella aerogenes) [µg/mL] | MIC [10] [µg/mL] | MIC [11] [µg/mL] | MIC (Enterococcus faecium [12]) [µg/mL] | MIC (Citrobacter freundii) [µg/mL] | MIC (Staphylococcus aureus [13]) [µg/mL] | MIC (Pseudomonas aeruginosa [14]) [µg/mL] | MIC (Providencia rettgeri) [µg/mL] | MIC (Staphylococcus aureus [15]) [µg/mL] | MIC (Enterobacter cloacae) [µg/mL] | other results
CCC(CC)NC(=N)c1ccc2cc(-c3ccc(Oc4ccc(-c5cc6ccc(C(=N)NC(CC)CC)cc6[nH]5)cc4)cc3)[nH]c2c1 | 16 (≈ 25.6 µM) | 32 (≈ 51.2 µM) | 16 (≈ 25.6 µM) | 16 (≈ 25.6 µM) | 4 (≈ 6.4 µM) | 2 (≈ 3.2 µM) | 2 (≈ 3.2 µM) | 2 (≈ 3.2 µM) | 32 (≈ 51.2 µM) | 2 (≈ 3.2 µM) | 16 (≈ 25.6 µM) | 0.5 (≈ 0.8 µM) | 16 (≈ 25.6 µM) | 4 (≈ 6.4 µM) | 16 (≈ 25.6 µM) | 2 (≈ 3.2 µM) | 32 (≈ 51.2 µM) | 16 (≈ 25.6 µM) | 2 (≈ 3.2 µM) | 16 (≈ 25.6 µM) | MIC (Klebsiella pneumoniae [16]): 16 µg/mL (≈ 25.6 µM); MIC (Escherichia coli [17]): 16 µg/mL (≈ 25.6 µM); MIC (Proteus vulgaris): 16 µg/mL (≈ 25.6 µM); CC50 at 48 h [18]: 25.4 µg/mL (≈ 40.7 µM); MIC (Enterococcus faecalis [19]): 4 µg/mL (≈ 6.4 µM); MIC (Enterococcus faecalis [20]): 2 µg/mL (≈ 3.2 µM); MIC (Proteus mirabilis): 32 µg/mL (≈ 51.2 µM); MIC (Klebsiella pneumoniae [21]): 16 µg/mL (≈ 25.6 µM); MIC (Enterococcus faecalis [22]): 4 µg/mL (≈ 6.4 µM); MIC [23]: 1 µg/mL (≈ 1.6 µM); MIC (Escherichia coli [24]): 16 µg/mL (≈ 25.6 µM); MIC (Salmonella typhi): 16 µg/mL (≈ 25.6 µM); MIC (Morganella morganii): 8 µg/mL (≈ 12.8 µM); MIC (Staphylococcus aureus [25]): 2 µg/mL (≈ 3.2 µM); MIC (Enterococcus faecalis [26]): 8 µg/mL (≈ 12.8 µM); MIC (Escherichia coli [27]): 16 µg/mL (≈ 25.6 µM); MIC (Pseudomonas aeruginosa [28]): 16 µg/mL (≈ 25.6 µM); MIC (Klebsiella pneumoniae [29]): 16 µg/mL (≈ 25.6 µM)
N=C(NC1CC1)c1ccc2cc(-c3ccc(Oc4ccc(-c5cc6ccc(C(=N)NC7CC7)cc6[nH]5)cc4)cc3)[nH]c2c1 | > 128 | > 128 | > 128 | > 128 | 4 (≈ 7.08 µM) | 4 (≈ 7.08 µM) | 4 (≈ 7.08 µM) | 4 (≈ 7.08 µM) | 128 (≈ 227 µM) | 4 (≈ 7.08 µM) | 128 (≈ 227 µM) | 1 (≈ 1.77 µM) | > 128 | 8 (≈ 14.2 µM) | > 128 | 4 (≈ 7.08 µM) | > 128 | > 128 | 4 (≈ 7.08 µM) | > 128 | MIC (Klebsiella pneumoniae [16]): > 128 µg/mL; MIC (Escherichia coli [17]): 128 µg/mL (≈ 227 µM); MIC (Proteus vulgaris): > 128 µg/mL; CC50 at 48 h [18]: 36.9 µg/mL (≈ 65.3 µM); MIC (Enterococcus faecalis [19]): 4 µg/mL (≈ 7.08 µM); MIC (Enterococcus faecalis [20]): 4 µg/mL (≈ 7.08 µM); MIC (Proteus mirabilis): > 128 µg/mL; MIC (Klebsiella pneumoniae [21]): > 128 µg/mL; MIC (Enterococcus faecalis [22]): 4 µg/mL (≈ 7.08 µM); MIC [23]: 2 µg/mL (≈ 3.54 µM); MIC (Escherichia coli [24]): 128 µg/mL (≈ 227 µM); MIC (Salmonella typhi): > 128 µg/mL; MIC (Morganella morganii): 128 µg/mL (≈ 227 µM); MIC (Staphylococcus aureus [25]): 4 µg/mL (≈ 7.08 µM); MIC (Enterococcus faecalis [26]): 8 µg/mL (≈ 14.2 µM); MIC (Escherichia coli [27]): 128 µg/mL (≈ 227 µM); MIC (Pseudomonas aeruginosa [28]): > 128 µg/mL; MIC (Klebsiella pneumoniae [29]): > 128 µg/mL
